Assay results taken from US12545944B2, “Method of detection” (priority 2017, dated 2026).

Assays:
[1] = cited from earlier work
[2] = system: carbapenemase-producing E. coli strains; assay: Colistin MIC by broth microdilution (BMD), CLSI/EUCAST; type: cell-based, Escherichia coli

## C[S+](C)[O-] [dimethyl sulfoxide (DMSO), dimethyl sulfoxide]
[1]
  Solubility in water: 25.3 g/100 g

## Colistin (Polymyxin E)
[2]; KPC-2 producing E. coli, N=1, mcr-1/-2 PCR negative
  Colistin MIC: 0.25 µg/mL
[2]; KPC-3 producing E. coli, N=1, mcr-1/-2 PCR negative
  Colistin MIC: 0.25 µg/mL
[2]; NDM-1 producing E. coli, N=1, mcr-1/-2 PCR negative
  Colistin MIC: 0.5 µg/mL
[2]; NDM-1 producing E. coli, N=1, mcr-1 PCR positive, PRR 1.73 ± 0.23
  Colistin MIC: 4 µg/mL
[2]; NDM-1 producing E. coli, N=1, mcr-1 PCR positive, PRR 2.34 ± 0.12
  Colistin MIC: 4 µg/mL
[2]; NDM-1 producing E. coli, N=3, mcr-1/-2 PCR negative
  Colistin MIC: 0.25 µg/mL
[2]; NDM-5 producing E. coli, N=2, mcr-1/-2 PCR negative
  Colistin MIC: 0.25 µg/mL
[2]; NDM-5 producing E. coli, N=3, mcr-1/-2 PCR negative
  Colistin MIC: 0.5 µg/mL
[2]; OXA-48 producing E. coli, N=1, mcr-1/-2 PCR negative
  Colistin MIC: 1 µg/mL
[2]; OXA-48 producing E. coli, N=1, mcr-1 PCR positive, PRR 1.29 ± 0.63
  Colistin MIC: 4 µg/mL
[2]; OXA-48 producing E. coli, N=26, mcr-1/-2 PCR negative
  Colistin MIC: 0.5 µg/mL
[2]; OXA-48 producing E. coli, N=27, mcr-1/-2 PCR negative
  Colistin MIC: 0.25 µg/mL
[2]; OXA-181 + NDM-5 producing E. coli, N=1, mcr-1/-2 PCR negative
  Colistin MIC: 0.25 µg/mL
[2]; OXA-181 producing E. coli, N=4, mcr-1/-2 PCR negative
  Colistin MIC: 0.25 µg/mL
[2]; OXA-204 producing E. coli, N=1, mcr-1/-2 PCR negative
  Colistin MIC: 0.25 µg/mL
[2]; OXA-244 producing E. coli, N=1 (first line), mcr-1/-2 PCR negative
  Colistin MIC: 0.25 µg/mL
[2]; OXA-244 producing E. coli, N=1 (second line), mcr-1/-2 PCR negative
  Colistin MIC: 0.5 µg/mL
[2]; VIM-1 producing E. coli, N=1, mcr-1/-2 PCR negative
  Colistin MIC: 0.5 µg/mL
[2]; VIM-4 producing E. coli, N=1, mcr-1/-2 PCR negative
  Colistin MIC: 0.25 µg/mL
[2]; two NDM-1 and one OXA-48 producer, resistant to colistin, positive for the mcr-1 gene
  MICs of colistin: 4 mg/L

## CC(C)O [2-propanol]
[1]
  Solubility in water: Miscible

## CN(C)P(N(C)C)N(C)C [Hexamethyl-phosphorous triamide (HMPT), Hexamethylphosphorous triamide]
[1]
  Solubility in water: Miscible

## Clc1ccccc1 [chlorobenzene]
[1]
  Solubility in water: 0.05 g/100 g

## CCOC(C)=O [ethyl acetate]
[1]
  Solubility in water: 8.7 g/100 g

## CN1CCCC1=O [N-methyl-2-pyrrolidinone (NMP), N-methyl-2-pyrrolidinone]
[1]
  Solubility in water: 10 g/100 g

## C1CCCCC1 [cyclohexane]
[1]
  Solubility in water: <0.1 g/100 g

## CCO [ethanol]
[1]
  Solubility in water: Miscible

## COCCOCCOC [diethylene glycol dimethyl ether]
[1]
  Solubility in water: Miscible

## COCCOC [1,2-dimethoxy-ethane (glyme, DME), 1,2-dimethoxy-ethane]
[1]
  Solubility in water: Miscible

## OCC(O)CO [glycerin]
[1]
  Solubility in water: Miscible

## CCCCCC [hexane]
[1]
  Solubility in water: 0.014 g/100 g
